Values quoted from earlier work, collected in patent publication US10481151B2, “Isolation of pulmonary arterial endothelial cells from patients with pulmonary vascular disease and uses thereof” (Allegheny-Singer Research Institute, priority 2012, dated 2019).

Settings: short half life, so the drug must be administered intravenously over a prolonged time frame

Half life, about 6 minutes:
CC#CCC(C)[C@H](O)/C=C/[C@@H]1[C@H]2C/C(=C/CCCC(=O)O)C[C@H]2C[C@H]1O (stereo partly drawn) [iloprost]
CCCCC[C@H](O)CC[C@@H]1[C@H]2Cc3cccc(OCC(=O)O)c3C[C@H]2C[C@H]1O [treprostinil]
CCCCC[C@H](O)/C=C/[C@@H]1[C@H]2C/C(=C/CCCC(=O)O)O[C@H]2C[C@H]1O [epoprostenol]
